Reference: a compilation of properties of binary mixtures (doi:10.1016/j.molliq.2016.02.091)

Assay: xn = mol fraction of the nth substance listed
Details: 101 kPa

CC[n+]1ccn(C)c1.COS(=O)(=O)[O-] + CC(=O)O
speed of sound [m/s]
Details	x2 = 0	x2 = 0.1669	x2 = 0.3003	x2 = 0.5004	x2 = 0.6432	x2 = 0.7503	x2 = 0.8336	x2 = 0.9001	x2 = 0.9546	x2 = 0.9783
298.15 K	1758	1713	1665	1593	1501	1419	–	1274	1202	–
303.15 K	1745	1702	1650	1580	–	1403	–	1258	–	1151
308.15 K	1734	–	1641	1568	1473	1391	1318	1246	1172	1136
313.15 K	1723	1681	1624	–	1456	1371	1298	1225	1152	1116

CC[n+]1ccn(C)c1.COS(=O)(=O)[O-] + CCC(=O)O
speed of sound [m/s]
Details	x2 = 0	x2 = 0.1332	x2 = 0.2478	x2 = 0.4345	x2 = 0.5804	x2 = 0.6975	x2 = 0.7935	x2 = 0.8737	x2 = 0.9417	x2 = 0.9719
298.15 K	1758	1715	1669	1590	1509	1430	1356	1285	1215	–
303.15 K	1745	1701	1656	1576	1493	1413	1339	1267	1197	1162
308.15 K	1734	1689	1642	1563	1478	1396	1321	1249	1178	1143
313.15 K	1723	1678	1630	1549	1462	1380	1304	1231	1160	–

CC(=O)O + CC[n+]1ccn(C)c1.COS(=O)(=O)[O-]
x1 = 1
Details	speed of sound [m/s]
298.15 K	1133
303.15 K	1117
308.15 K	1102
313.15 K	1082

CCC(=O)O + CC[n+]1ccn(C)c1.COS(=O)(=O)[O-]
x1 = 1
Details	speed of sound [m/s]
303.15 K	1129
308.15 K	1110
